# US20150118179A1, “BIOCIDAL COMPOUNDS AND METHODS FOR USING SAME” (UNIVERSITY OF MANITOBA, priority 2012, published 2015)
# Columns and labels:
# CA-MRSA 40065 = assay: Biocidal activity in bacterial suspension (Example 18); assay type: cell-based, Staphylococcus aureus; settings: Table 2, 15 ppm [Cl+], inoculum 1.57-1.75 × 10^6 CFU/mL
# Procedure: Logarithmic-phase cultures of MRSA were prepared using similar way except TSA broth was used instead.
# (§1) Biocidal activity of synthetic compounds was completed as followed. To 20 mL of bacterial suspension (10^5 or 10^6 cfu/mL) in a centrifuge tube was added 30 μL solution of synthetic compounds (0.282 M stock solution) to achieve a final [Cl^+] of 15 ppm. Timing of the exposure to the disinfectant was started immediately with the addition of the synthetic compound. After predetermined contact time, 1.0 mL aliquots were withdrawn and added to an equal volume of 0.02 N sodium thiosulfate in PBS (0.1 M, pH 7.4). The quenched suspension was serially diluted and 100 μL of each resulting dilution was placed onto nutrient agar plates. After being incubated at 37° C. for 24 hours, the viable bacterial colonies on the plates were counted. Bacterial reduction was reported according to:
# (§2) Percentage reduction of bacteria (%)=(A−B)/A×100
# (§3) Log reduction=Log(A/B) (4)
# (§4) where A is the number of bacteria in the starting inoculum (cfu/mL), and B is the number of bacteria retrieved from synthetic compounds (cfu/mL).
# P. aeruginosa 73104 = assay: as above; assay type: cell-based, Pseudomonas aeruginosa; settings: 15 ppm [Cl+]
# Procedure: Logarithmic-phase cultures of P. aeruginosa were prepared by initially suspending several colonies in cation-supplemented Mueller-Hinton broth (Oxoid, Nepean, Ontario, Canada) at a density equivalent to a 0.5 McFarland standard (1×10^8 cfu/mL). This suspension was then diluted 1:100 and 20 μL of the diluted suspension was further diluted in 60 mL of cation-supplemented Mueller-Hinton broth. Following overnight growth at 37° C., suspensions were diluted 1:[…] to get inoculums of approximately 1×10^6 or 1×10^5 cfu/mL.
# as §1, §2, §3, §4
# MDR-E. coli (#70094) = assay: Biocidal activity in bacterial suspension (Example 17); assay type: cell-based, Escherichia coli; settings: 15 ppm [Cl+]
# Procedure: (§5) In the model study we investigated the bactericidal performance of small molecules 2 and 43 against three strains for each bacterium at the concentration of 15 ppm.
# (§6) Tryptone Soya Agar (TSA) was used for bacterial culture. After sub-cultured from stocks, bacteria were allowed to grow at 37° C. for 18-20 hours to obtain logarithmic-phase cultures. Biocidal activity of 2 and 43 were completed as followed. To 20 mL bacterial suspension (10^6-10^7 colony forming units (CFU)/mL) in a centrifuge tube was added 30 μL it 2 or 43 solutions (0.28 M stock solution) respectively to achieve final 15 ppm [Cl^+]). Timing of the exposure to the disinfectant was started immediately with the addition of the synthetic compound 2 or 43. After the contact for 5 min, 10 min, and 20 min respectively, 1.0 mL aliquots were withdrawn and added to an equal volume of 0.02 N sodium thiosulfate in PBS (0.05 M, pH 7.0). The quenched suspension was serially diluted and 100 μL of each resulting dilutions were placed onto nutrient agar plates. The same procedure was also applied to compounds 1 and 42 as controls. After being incubated at 37° C. for 24 hours, viable bacterial colonies on the plates were counted. Bacterial reduction was reported according to the following equation.
# as §2
# (§7) Where A is the number of bacteria retrieved from controls (CFU/mL), and B is the number of bacteria retrieved from 2 or 43 (CFU/mL).
# E. coli ATCC 25922 = assay: as above; assay type: cell-based, Escherichia coli; settings: 15 ppm [Cl+]
# Procedure: as §5, §6, §2, §7
# MDR-E. coli (#95882) = assay: as above; assay type: cell-based, Escherichia coli; settings: 15 ppm [Cl+]
# Procedure: as §5, §6, §2, §7
# MRSA ATCC33592 = assay: as above; assay type: cell-based, Staphylococcus aureus; settings: 15 ppm [Cl+]
# Procedure: as §5, §6, §2, §7
# MRSA (#70527) = assay: as above; assay type: cell-based, Staphylococcus aureus; settings: 15 ppm [Cl+]
# Procedure: as §5, §6, §2, §7
# MRSA (#77090) = assay: as above; assay type: cell-based, Staphylococcus aureus; settings: 15 ppm [Cl+]
# Procedure: as §5, §6, §2, §7
# [1] = Table 3, contact 60 min, inoculum 2.26 × 10^5 CFU/mL
# [2] = Table 3, contact 90 min, inoculum 2.26 × 10^5 CFU/mL
# [3] = Table 4, contact 3 min, inoculum 2.26-2.98 × 10^5 CFU/mL
# [4] = Table 4, contact 5 min, inoculum 2.26-2.98 × 10^5 CFU/mL
# [5] = Table 4, contact 10 min, inoculum 2.26-2.98 × 10^5 CFU/mL
# [6] = Table 4, contact 20 min, inoculum 2.26-2.98 × 10^5 CFU/mL
# [7] = Table 4, contact 30 min, inoculum 2.26-2.98 × 10^5 CFU/mL
# [8] = Table 4, contact 45 min, inoculum 2.26-2.98 × 10^5 CFU/mL
# [9] = Table 4, contact 60 min, inoculum 2.26-2.98 × 10^5 CFU/mL
smiles,measurement,setting,value
CC1(C)C(=O)N(CCC[N+](C)(C)C)C(=O)N1Cl [Compound 2],Bacteria reduction %,CA-MRSA 40065; contact 3 min,92.8%
same,Bacteria reduction Log10,CA-MRSA 40065; contact 3 min,1.14 Log10
same,Bacteria reduction %,CA-MRSA 40065; contact 5 min,93.8%
same,Bacteria reduction Log10,CA-MRSA 40065; contact 5 min,1.20 Log10
same,Bacteria reduction %,CA-MRSA 40065; contact 10 min,90.3%
same,Bacteria reduction Log10,CA-MRSA 40065; contact 10 min,1.01 Log10
same,Bacteria reduction %,CA-MRSA 40065; contact 60 min,99.6%
same,Bacteria reduction Log10,CA-MRSA 40065; contact 60 min,2.36 Log10
same,Reduction of P. aeruginosa,"P. aeruginosa 73104; 10^6 cfu/mL P. aeruginosa, within 60 min of contact",cannot bring any significant reduction
same,Bacteria reduction %,"P. aeruginosa 73104; Table 3, contact 3 min, inoculum 2.26 × 10^5 CFU/mL",37.6 ± 1.9%
same,Bacteria reduction %,"P. aeruginosa 73104; Table 3, contact 5 min, inoculum 2.26 × 10^5 CFU/mL",26.6 ± 12.5%
same,Bacteria reduction Log10,"P. aeruginosa 73104; Table 3, contact 10 min, inoculum 2.26 × 10^5 CFU/mL",0.41 ± 0.02 Log10
same,Bacteria reduction %,P. aeruginosa 73104; [1],100%
same,Bacteria reduction Log10,P. aeruginosa 73104; [1],5.35 Log10
same,Bacteria reduction %,P. aeruginosa 73104; [2],100%
same,Bacteria reduction Log10,P. aeruginosa 73104; [2],5.35 Log10
same,Bacteria reduction %,P. aeruginosa 73104; [3],37.6%
same,Bacteria reduction Log,P. aeruginosa 73104; [3],0.2 Log
same,Bacteria reduction %,P. aeruginosa 73104; [4],26.6%
same,Bacteria reduction Log,P. aeruginosa 73104; [4],0.14 Log
same,Bacteria reduction %,P. aeruginosa 73104; [5],61.5%
same,Bacteria reduction Log,P. aeruginosa 73104; [5],0.41 Log
same,Bacteria reduction %,P. aeruginosa 73104; [6],99.65%
same,Bacteria reduction Log,P. aeruginosa 73104; [6],2.46 Log
same,Bacteria reduction %,P. aeruginosa 73104; [7],99.99%
same,Bacteria reduction Log,P. aeruginosa 73104; [7],4.02 Log
same,Bacteria reduction %,P. aeruginosa 73104; [8],99.99%
same,Bacteria reduction Log,P. aeruginosa 73104; [8],4.67 Log
same,Bacteria reduction %,P. aeruginosa 73104; [9],100%
same,Bacteria reduction Log,P. aeruginosa 73104; [9],5.47 Log
same,Bacteria reduction %,MDR-E. coli (#70094); contact 5 min,100%
same,Bacteria reduction Log10,MDR-E. coli (#70094); contact 5 min,6.17 Log10
same,Bacteria reduction %,MDR-E. coli (#70094); contact 10 min,100%
same,Bacteria reduction Log10,MDR-E. coli (#70094); contact 10 min,6.17 Log10
same,Bacteria reduction %,MDR-E. coli (#70094); contact 20 min,100%
same,Bacteria reduction Log10,MDR-E. coli (#70094); contact 20 min,6.17 Log10
same,Bacteria reduction Log10,E. coli ATCC 25922; contact 5 min,6.63 Log10
same,Bacteria reduction %,"E. coli ATCC 25922; contact 5 min, inoculum 1.46-5.87 × 10^6 CFU/mL",100%
same,Bacteria reduction %,E. coli ATCC 25922; contact 10 min,100%
same,Bacteria reduction Log10,E. coli ATCC 25922; contact 10 min,6.63 Log10
same,Bacteria reduction %,E. coli ATCC 25922; contact 20 min,100%
same,Bacteria reduction Log10,E. coli ATCC 25922; contact 20 min,6.63 Log10
same,Bacteria reduction %,MDR-E. coli (#95882); contact 5 min,100%
same,Bacteria reduction Log10,MDR-E. coli (#95882); contact 5 min,6.67 Log10
same,Bacteria reduction %,MDR-E. coli (#95882); contact 10 min,100%
same,Bacteria reduction Log10,MDR-E. coli (#95882); contact 10 min,6.67 Log10
same,Bacteria reduction %,MDR-E. coli (#95882); contact 20 min,100%
same,Bacteria reduction Log10,MDR-E. coli (#95882); contact 20 min,6.67 Log10
same,Bacteria reduction %,MRSA ATCC33592; contact 5 min,100%
same,Bacteria reduction Log10,MRSA ATCC33592; contact 5 min,6.60 Log10
same,Bacteria reduction %,MRSA ATCC33592; contact 10 min,100%
same,Bacteria reduction Log10,MRSA ATCC33592; contact 10 min,6.60 Log10
same,Bacteria reduction %,MRSA ATCC33592; contact 20 min,100%
same,Bacteria reduction Log10,MRSA ATCC33592; contact 20 min,6.60 Log10
same,Bacteria reduction %,MRSA (#70527); contact 5 min,100%
same,Bacteria reduction Log10,MRSA (#70527); contact 5 min,6.76 Log10
same,Bacteria reduction %,MRSA (#70527); contact 10 min,100%
same,Bacteria reduction Log10,MRSA (#70527); contact 10 min,6.76 Log10
same,Bacteria reduction %,MRSA (#70527); contact 20 min,100%
same,Bacteria reduction Log10,MRSA (#70527); contact 20 min,6.76 Log10
same,Bacteria reduction %,MRSA (#77090); contact 5 min,100%
same,Bacteria reduction Log10,MRSA (#77090); contact 5 min,6.16 Log10
same,Bacteria reduction %,MRSA (#77090); contact 10 min,100%
same,Bacteria reduction Log10,MRSA (#77090); contact 10 min,6.16 Log10
same,Bacteria reduction %,MRSA (#77090); contact 20 min,100%
same,Bacteria reduction Log10,MRSA (#77090); contact 20 min,6.16 Log10
